# According to patent publication US6914045B2, “Glycopeptide antibiotics” (Wyeth Holdings Corporation, priority 2001, dated 2005):
# Experiments:
# Assay in all cases: in vitro antibacterial evaluation, MIC by broth dilution
# Type in all cases: cell-based
# Enterococcus sp. = conditions: broth dilution, 18 hours at 35° C.
# How it was run: (§1)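 Following National Committee for Clinical Laboratory Standards recommendations (M7-A2), susceptibility was measured by dilution in Muller-Hinton II […]. Bacteria were seeded at 5×10^5 CFU/mL against compound concentrations from 64 down to 0.06 μg/mL.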
# Streptococcus sp. = conditions: broth dilution, 18 hours at 35° C.
# How it was run: as §1
# Staphylococcus sp. = conditions: broth dilution, 18 hours at 35° C.
# How it was run: as §1
# Escherichia coli = conditions: 18 hours at 35° C.
# How it was run: as §1
smiles,measurement,setting,value
"CCCCOC(=O)CCC1OCC2OC(OC3C(CO)OC(Oc4ccc(CC5NC(=O)C(C(C)c6ccccc6)NC(=O)CNC(=O)C(CO)NC(=O)C(C(O)C6CNC(=N)N6C6OC(CO)C(O)C(O)C6O)NC(=O)C(C(O)C6CNC(=N)N6)NC5=O)cc4)C(O)C3O)C(O)C(O)C2O1 (stereo not drawn) [Example 114, Cyclo[glycyl-β-methylphenylalanyl-O-[4-O-[4,6-O-(4-butoxy-4-oxobutylidene)hexopyranosyl]-hexopyranosyl]tyrosyl-3-(2-iminoimidazolidin-4-yl)seryl-3-(3-hexopyranosyl-2-iminoimidazolidin-4-yl)serylseryl]]",MIC Enterococcus avium (GC 4558),Enterococcus sp.; Enterococcus avium (GC 4558),8 µg/mL
same,MIC Enterococcus faecalis (ATCC 29212),Enterococcus sp.; Enterococcus faecalis (ATCC 29212),4 µg/mL
same,MIC Enterococcus faecalis (GC 2242),Enterococcus sp.; Enterococcus faecalis (GC 2242),4 µg/mL
same,MIC Enterococcus faecalis (GC 2691),Enterococcus sp.; Enterococcus faecalis (GC 2691),4 µg/mL
same,MIC Enterococcus faecalis (GC 3059),Enterococcus sp.; Enterococcus faecalis (GC 3059),8 µg/mL
same,MIC Enterococcus faecalis (GC 4552),Enterococcus sp.; Enterococcus faecalis (GC 4552),4 µg/mL
same,MIC Enterococcus faecalis (GC 4553),Enterococcus sp.; Enterococcus faecalis (GC 4553),8 µg/mL
same,MIC Enterococcus faecalis (GC 4554),Enterococcus sp.; Enterococcus faecalis (GC 4554),4 µg/mL
same,MIC Enterococcus faecalis (GC 6189),Enterococcus sp.; Enterococcus faecalis (GC 6189),4 µg/mL
same,MIC Enterococcus faecium (GC 2243),Enterococcus sp.; Enterococcus faecium (GC 2243),4 µg/mL
same,MIC Enterococcus faecium (GC 4556),Enterococcus sp.; Enterococcus faecium (GC 4556),4 µg/mL
same,MIC Enterococcus faecium (GC 4557),Enterococcus sp.; Enterococcus faecium (GC 4557),2 µg/mL
same,MIC Enterococcus faecalis (ATCC 29212),Enterococcus sp.; strain ATCC 29212,4 µg/mL
same,MIC Enterococcus faecalis (GC 2242),Enterococcus sp.; strain GC 2242,4 µg/mL
same,MIC Enterococcus faecium (GC 2243),Enterococcus sp.; strain GC 2243,4 µg/mL
same,MIC Enterococcus faecalis (GC 2691),Enterococcus sp.; strain GC 2691,4 µg/mL
same,MIC Enterococcus faecalis (GC 3059),Enterococcus sp.; strain GC 3059,8 µg/mL
same,MIC Enterococcus faecalis (GC 4552),Enterococcus sp.; strain GC 4552,4 µg/mL
same,MIC Enterococcus faecalis (GC 4553),Enterococcus sp.; strain GC 4553,8 µg/mL
same,MIC Enterococcus faecalis (GC 4554),Enterococcus sp.; strain GC 4554,4 µg/mL
same,MIC Enterococcus faecium (GC 4556),Enterococcus sp.; strain GC 4556,4 µg/mL
same,MIC Enterococcus faecium (GC 4557),Enterococcus sp.; strain GC 4557,2 µg/mL
same,MIC Enterococcus avium (GC 4558),Enterococcus sp.; strain GC 4558,8 µg/mL
same,MIC Enterococcus faecalis (GC 6189),Enterococcus sp.; strain GC 6189,4 µg/mL
same,MIC Streptococcus agalactiae (GC 4564),Streptococcus sp.; Streptococcus agalactiae (GC 4564),0.5 µg/mL
same,MIC Streptococcus pneumoniae (ATCC 6301),Streptococcus sp.; Streptococcus pneumoniae (ATCC 6301),0.12 µg/mL
same,MIC Streptococcus pneumoniae (GC 1894),Streptococcus sp.; Streptococcus pneumoniae (GC 1894),<0.06 µg/mL
same,MIC Streptococcus pneumoniae (GC 4565),Streptococcus sp.; Streptococcus pneumoniae (GC 4565),0.25 µg/mL
same,MIC Streptococcus pyogenes (GC 4563),Streptococcus sp.; Streptococcus pyogenes (GC 4563),0.5 µg/mL
same,MIC Streptococcus pneumoniae (ATCC 6301),Streptococcus sp.; strain ATCC 6301,0.12 µg/mL
same,MIC Streptococcus pneumoniae (GC 1894),Streptococcus sp.; strain GC 1894,<0.06 µg/mL
same,MIC Streptococcus pyogenes (GC 4563),Streptococcus sp.; strain GC 4563,0.5 µg/mL
same,MIC Streptococcus agalactiae (GC 4564),Streptococcus sp.; strain GC 4564,0.5 µg/mL
same,MIC Streptococcus pneumoniae (GC 4565),Streptococcus sp.; strain GC 4565,0.25 µg/mL
same,MIC Coagulase Negative Staphylococcus (GC 4547),Staphylococcus sp.,2 µg/mL
same,MIC Coagulase Negative Staphylococcus (GC 4548),Staphylococcus sp.,1 µg/mL
same,MIC Coagulase Negative Staphylococcus (GC 4549),Staphylococcus sp.,2 µg/mL
same,MIC Coagulase Negative Staphylococcus (GC 4551),Staphylococcus sp.,2 µg/mL
same,MIC Coagulase Negative Staphylococcus (GC 6257),Staphylococcus sp.,1 µg/mL
same,MIC Staphylococcus aureus (ATCC 29213),Staphylococcus sp.,2 µg/mL
same,MIC Staphylococcus aureus (GC 1131),Staphylococcus sp.,2 µg/mL
same,MIC Staphylococcus aureus (GC 3051),Staphylococcus sp.,2 µg/mL
same,MIC Staphylococcus aureus (GC 3053),Staphylococcus sp.,2 µg/mL
same,MIC Staphylococcus aureus (GC 4541),Staphylococcus sp.,2 µg/mL
same,MIC Staphylococcus aureus (GC 4542),Staphylococcus sp.,1 µg/mL
same,MIC Staphylococcus aureus (GC 4544),Staphylococcus sp.,2 µg/mL
same,MIC Staphylococcus aureus (GC 4545),Staphylococcus sp.,2 µg/mL
same,MIC Staphylococcus aureus-SMITH (GC 4543),Staphylococcus sp.,2 µg/mL
same,MIC Staphylococcus haemolyticus (GC 4546),Staphylococcus sp.,1 µg/mL
same,MIC Staphylococcus aureus (GC 1131),"Staphylococcus sp.; inoculum 5×10^5 CFU/mL, strain GC 1131",2 µg/mL
same,MIC Staphylococcus aureus (ATCC 29213),Staphylococcus sp.; strain ATCC 29213,2 µg/mL
same,MIC Staphylococcus aureus (GC 3051),Staphylococcus sp.; strain GC 3051,2 µg/mL
same,MIC Staphylococcus aureus (GC 3053),Staphylococcus sp.; strain GC 3053,2 µg/mL
same,MIC Staphylococcus aureus (GC 4541),Staphylococcus sp.; strain GC 4541,2 µg/mL
same,MIC Staphylococcus aureus (GC 4542),Staphylococcus sp.; strain GC 4542,1 µg/mL
same,MIC Staphylococcus aureus (GC 4544),Staphylococcus sp.; strain GC 4544,2 µg/mL
same,MIC Staphylococcus aureus (GC 4545),Staphylococcus sp.; strain GC 4545,2 µg/mL
same,MIC Staphylococcus haemolyticus (GC 4546),Staphylococcus sp.; strain GC 4546,1 µg/mL
same,MIC Coagulase Negative Staphylococcus (GC 4547),Staphylococcus sp.; strain GC 4547,2 µg/mL
same,MIC Coagulase Negative Staphylococcus (GC 4548),Staphylococcus sp.; strain GC 4548,1 µg/mL
same,MIC Coagulase Negative Staphylococcus (GC 4549),Staphylococcus sp.; strain GC 4549,2 µg/mL
same,MIC Coagulase Negative Staphylococcus (GC 4551),Staphylococcus sp.; strain GC 4551,2 µg/mL
same,MIC Coagulase Negative Staphylococcus (GC 6257),Staphylococcus sp.; strain GC 6257,1 µg/mL
same,MIC Staphylococcus aureus-SMITH (GC 4543),Staphylococcus sp.; strain SMITH GC 4543,2 µg/mL
same,MIC Escherichia coli (ATCC 25922),Escherichia coli; strain ATCC 25922,64 µg/mL
same,MIC Escherichia coli (GC 4559),Escherichia coli; strain GC 4559,64 µg/mL
same,MIC Escherichia coli (GC 4560),Escherichia coli; strain GC 4560,1 µg/mL
